Experimental data from patent US20230270804A1, “ANTI-HYPERCHOLESTEROLEMIA COMPOSITION AND A METHOD OF MANUFACTURING THE SAME” (NBI BIOSCIENCES PRIVATE LIMITED, priority 2020, published 2023).

What was measured:
Format in all cases: in vivo, Wistar strain albino rats
[1] = Therapeutic study (60 days treatment after 90 days HFD): body weight; settings: in g
Method: (§1) Wistar strain albino rats of body weight ranging from 190-225 g were selected for the present study. The temperature and humidity were kept at optimum (22+2° C.; 40-70% and animals were exposed to natural chronological day night cycles. The experiments were carried out in conformity with the Institutional Animal Ethics Committee.
(§2) The 6 groups were as follows: • 1. Normal Control • 2.

[2] = target: T1, HMG CoA Reductase (Rattus norvegicus, UniProt P51639); assay: Therapeutic study: HMG CoA reductase activity in liver homogenate; settings: after necropsy
T1 construct: The tissue homogenate was prepared by homogenizing 1 gm of tissue (liver) with 10 ml of saline arsenate solution; from tissue; host or cells: rat liver homogenate
T1 sequence (P51639 1-887): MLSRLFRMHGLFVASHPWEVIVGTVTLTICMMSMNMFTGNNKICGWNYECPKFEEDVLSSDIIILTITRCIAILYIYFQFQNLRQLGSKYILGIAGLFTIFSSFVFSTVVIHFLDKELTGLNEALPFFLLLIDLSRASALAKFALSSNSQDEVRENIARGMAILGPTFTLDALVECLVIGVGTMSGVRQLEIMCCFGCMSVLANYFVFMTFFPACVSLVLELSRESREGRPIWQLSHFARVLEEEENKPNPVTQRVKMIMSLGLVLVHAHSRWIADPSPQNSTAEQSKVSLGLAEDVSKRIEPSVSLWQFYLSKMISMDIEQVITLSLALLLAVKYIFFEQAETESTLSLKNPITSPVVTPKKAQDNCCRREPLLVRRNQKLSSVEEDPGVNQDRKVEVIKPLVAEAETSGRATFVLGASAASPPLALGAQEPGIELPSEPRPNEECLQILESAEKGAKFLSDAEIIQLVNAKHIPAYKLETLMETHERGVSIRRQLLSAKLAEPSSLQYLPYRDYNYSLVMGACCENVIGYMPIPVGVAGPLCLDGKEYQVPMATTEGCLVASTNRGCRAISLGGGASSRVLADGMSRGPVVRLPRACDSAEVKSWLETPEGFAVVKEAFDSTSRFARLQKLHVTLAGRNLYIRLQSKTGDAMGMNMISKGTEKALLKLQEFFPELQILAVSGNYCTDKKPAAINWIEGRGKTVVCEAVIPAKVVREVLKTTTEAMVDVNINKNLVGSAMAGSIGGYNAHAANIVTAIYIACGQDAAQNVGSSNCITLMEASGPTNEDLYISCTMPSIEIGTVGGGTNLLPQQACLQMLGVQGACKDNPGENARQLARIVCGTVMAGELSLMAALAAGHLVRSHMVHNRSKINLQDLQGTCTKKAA
Method: (§3) 1.5-2 ml blood sample was taken from retino-orbital chamber in vials for biochemical estimations at every 15 days. Investigations performed included detailed Total Cholesterol—TC (mg/dl), Triglyceride—TG (mg/dl), High Density Lipoprotein—HDL-C (mg/dl), Low Density Lipoprotein—LDL-C (mg/dl), Very Low-Density Lipoprotein—VLDL (mg/dl), WBC (10^3/u1), RBC (10^6/u1), Hb (g/dl), PCV (%), Reticulocyte (%), Platelet count 10^5/mm^3, Clotting time (Sec), Neutrophils, Lymphocyte, Monocyte and Eosinophil. The estimations were done with Ecoline kits from Erba Mannheim, ERBA diagnostics Mannheml, Germany using Semi Autoanalyzer RX50 of MicroLabs Instruments and COUNCELL21 of Tulip Diagnostics Pvt. Ltd. Lipid peroxidation (Plasma & Liver), HMG Co-Reductase, Creatine phosphokinase (CPK), Lactate dehydrogenase (LDH), SGOT and SGPT were estimated at the end of both the studies using the kits.
The tissue homogenate was prepared by homogenizing 1 gm of tissue (liver) with 10 ml of saline arsenate solution. Further equal volumes of the fresh 10% tissue homogenate and diluted perchloric acid were mixed and allowed to stand for 5 minute and centrifuge (2000 rpm, 10 minutes). […] The readings were taken after 10 minutes at 540 nm vs. a similarly treated saline/arsenate blank.

[3] = Prophylactic study (90 days): body weight; settings: for Average Body Weight: HFD+normal diet
Method: as §1, §2

[4] = test system: hypercholesterolemia induced wistar rats' models; assay: Therapeutic study: lipid profile (TC, TG, HDL-C, LDL-C, VLDL)
Method: as §1, §2, §3

In the case of `CC(C)c1c(C(=O)Nc2ccccc2)c(-c2ccccc2)c(-c2ccc(F)cc2)n1CC[C@@H](O)C[C@@H](O)CC(=O)O` [Statin, Atorvastatin], the “Average Body Weight” value ([1]; HFD continued, day 0) is reported as 275.33 ± 7.09, the “Average Body Weight” value ([1]; HFD continued, day 15) is reported as 270.67 ± 7.37 and the “Average Body Weight” value ([1]; HFD continued, day 30) is reported as 268.33 ± 2.52. For the same compound, the “Average Body Weight” value ([1]; HFD continued, day 45) was 265.67 ± 6.51, the “Average Body Weight” value ([1]; HFD continued, day 60) was 262.33 ± 7.15 and the “Average Body Weight” value ([1]; HFD discontinued, day 0) was 270.33 ± 8.74. The “Average Body Weight” value ([1]; HFD discontinued, day 30) was 264.33 ± 3.06, the “Average Body Weight” value ([1]; HFD discontinued, day 45) was 263.00 ± 5.57 and the “Average Body Weight” value ([1]; HFD discontinued, day 60) was 259.83 ± 6.27. For the same compound, the “HMG Co Reductase” value ([2]; HFD Continued) was 224.83 ± 18.48 U/mg, the “HMG Co Reductase” value ([2]; HFD Discontinued) was 170.03 ± 2.71 U/mg and the “Average Body Weight” value ([3]; day 0) was 209.83 ± 26.39 gms. The “Average Body Weight” value ([3]; day 15) was 213.16 ± 27.47 gms, the “Average Body Weight” value ([3]; day 30) was 209.10 ± 20.10 gms and the “Average Body Weight” value ([3]; day 45) was 223.83 ± 28.41 gms. For the same compound, the “Average Body Weight” value ([3]; day 60) was 222.6 ± 17.46 gms, the “Average Body Weight” value ([3]; day 75) was 223.05 ± 8.08 gms and the “Average Body Weight” value ([3]; day 90) was 229.72 ± 6.13 gms. For the same compound, the “maintenance of body weight” value ([3]; prophylactic study, after HFD treatment) was “not able to maintain the body weight”, the HDL-C ([4]; HFD continued, day 0) was 40.33 ± 2.08 mg/dL and the LDL-C ([4]; HFD continued, day 0) was 91.67 ± 3.06 mg/dL. It also gave a TC ([4]; HFD continued, day 0) of 139.67 ± 4.04 mg/dL, a TG ([4]; HFD continued, day 0) of 38.67 ± 2.08 mg/dL and a VLDL ([4]; HFD continued, day 0) of 3.87 ± 0.31 mg/dL. The HDL-C ([4]; HFD continued, day 15) was 40.83 ± 1.15 mg/dL, the LDL-C ([4]; HFD continued, day 15) was 92.83 ± 3.82 mg/dL and the TC ([4]; HFD continued, day 15) was 138.00 ± 4.00 mg/dL. For the same compound, the TG ([4]; HFD continued, day 15) was 38.00 ± 1.80 mg/dL, the HDL-C ([4]; HFD continued, day 30) was 42.45 ± 0.44 mg/dL and the LDL-C ([4]; HFD continued, day 30) was 91.33 ± 0.21 mg/dL. For the same compound, the TC ([4]; HFD continued, day 30) was 134.00 ± 3.00 mg/dL, the TG ([4]; HFD continued, day 30) was 37.30 ± 0.44 mg/dL and the VLDL ([4]; HFD continued, day 30) was 3.91 ± 0.05 mg/dL. It also gave an HDL-C ([4]; HFD continued, day 45) of 40.20 ± 2.07 mg/dL, an LDL-C ([4]; HFD continued, day 45) of 90.37 ± 0.85 mg/dL and a TC ([4]; HFD continued, day 45) of 126.33 ± 4.51 mg/dL. It also gave a TG ([4]; HFD continued, day 45) of 34.73 ± 1.37 mg/dL, a VLDL ([4]; HFD continued, day 45) of 3.86 ± 0.11 mg/dL and an HDL-C ([4]; HFD continued, day 60) of 39.82 ± 1.88 mg/dL. The LDL-C ([4]; HFD continued, day 60) was 89.52 ± 1.20 mg/dL, the TC ([4]; HFD continued, day 60) was 125.15 ± 4.20 mg/dL and the TG ([4]; HFD continued, day 60) was 34.41 ± 1.26 mg/dL. For the same compound, the VLDL ([4]; HFD continued, day 60) was 3.82 ± 0.10 mg/dL, the HDL-C ([4]; HFD discontinued, day 0) was 41.67 ± 1.53 mg/dL and the LDL-C ([4]; HFD discontinued, day 0) was 90.67 ± 3.21 mg/dL. The TC ([4]; HFD discontinued, day 0) was 134.33 ± 4.04 mg/dL, the TG ([4]; HFD discontinued, day 0) was 38.33 ± 2.52 mg/dL and the VLDL ([4]; HFD discontinued, day 0) was 3.83 ± 0.38 mg/dL. It also gave an HDL-C ([4]; HFD discontinued, day 15) of 40.17 ± 0.58 mg/dL, an LDL-C ([4]; HFD discontinued, day 15) of 90.60 ± 3.55 mg/dL and a TC ([4]; HFD discontinued, day 15) of 133.00 ± 4.58 mg/dL. The TG ([4]; HFD discontinued, day 15) was 37.50 ± 2.00 mg/dL, the VLDL ([4]; HFD discontinued, day 15) was 3.91 ± 0.34 mg/dL and the HDL-C ([4]; HFD discontinued, day 30) was 41.23 ± 0.38 mg/dL. It also gave an LDL-C ([4]; HFD discontinued, day 30) of 85.03 ± 0.21 mg/dL, a TC ([4]; HFD discontinued, day 30) of 129.33 ± 2.08 mg/dL and a TG ([4]; HFD discontinued, day 30) of 35.97 ± 0.74 mg/dL. The VLDL ([4]; HFD discontinued, day 30) was 3.88 ± 0.04 mg/dL, the HDL-C ([4]; HFD discontinued, day 45) was 39.70 ± 0.46 mg/dL and the TC ([4]; HFD discontinued, day 45) was 117.67 ± 6.66 mg/dL. The TG ([4]; HFD discontinued, day 45) was 34.53 ± 0.83 mg/dL, the VLDL ([4]; HFD discontinued, day 45) was 3.69 ± 0.05 mg/dL and the HDL-C ([4]; HFD discontinued, day 60) was 38.94 ± 0.82 mg/dL. The LDL-C ([4]; HFD discontinued, day 60) was 83.69 ± 1.18 mg/dL, the TC ([4]; HFD discontinued, day 60) was 116.49 ± 6.04 mg/dL and the TG ([4]; HFD discontinued, day 60) was 34.19 ± 0.83 mg/dL. The “level of HDL” value ([4]; therapeutic study, 60 days) was 39 mg/dL, the “reduction in LDL” value ([4]; therapeutic study, 60 days) was 8% and the “reduction in total cholesterol” value ([4]; therapeutic study, 60 days) was 13%.
